# In patent US8513214B2, “C4′-substituted-2-deoxyadenosine analogs and methods of treating HIV” (The United States of America as Represented by the …, priority 2007, dated 2013):
# Read-outs that look alike come from different tables or passages of the source.
# Legend:
# [1] = test system: HIV-1 vectors (wild-type); format: cell-based
# [2] = test system: HIV-1 M184V variant; format: cell-based; conditions: HOS cells, single-cycle infectivity assay
# [3] = test system: NRTI-resistant HIV-1, including the M184V variant; conditions: infected MT-4 cells, Ohrui 2006, Ohuri 2007, Kawamoto 2008, cited from earlier work
# [4] = test system: MT-4 cells; conditions: previously reported; cited from earlier work
# [5] = molecular target: T1, HIV-1 RT (Human immunodeficiency virus type 1 group M subtype B, UniProt P03366); assay: Polymerase (DNA) extension assay with purified recombinant HIV-1 RT; format: biochemical
# T1 construct: The expression and purification of HIV-1 RT and the polymerase assays were done as previously described; made in house
# Protocol: FIG. 15. In vitro DNA extension using purified, recombinant HIV-1 RT, with varying amounts of C4′-methyl-2-deoxyadenosinetriphosphate and either (A) a DNA template or (B) and RNA template. […] Bands in the lane containing equimolar amounts of ddATP and dATP correspond to pausing events at the site of incorporation of the nuclosidetriphosphate analog.
# The expression and purification of HIV-1 RT and the polymerase assays were done as previously described. For the extension assays, 7.0µl of a […] of synthetic DNA oligonucleotide (5′-[…]-3′ (SEQ ID NO:1); Biosource, CA) was 5′ end-labeled, then annealed to an excess of either a DNA template (5′-[…]-3′ (SEQ ID NO:2)) or an RNA template (5′-[…]-3′ (SEQ ID NO:3)). The A residue is the first nucleotide past the 3′ end of the primer. The annealed template-primer (T/P) was suspended in a final concentration of 25.0 mM Tris (pH 8.0), 75 mM KCl, 8.0 mM MgCl2, 100.0µg/ml BSA, 10.0 mM CHAPS, and 10.0µM each of dCTP, dGTP, and TTP. For the RNA template reactions, the mixture was also supplemented with 1 U/µl of SuperAsin (Ambion). The reaction buffer was aliquoted to individual tubes, then supplemented with a total of 10.0µM dATP and/or adenosine triphosphate analog (as described in the figure legend). The reactions were initiated by the addition of 1.0µg RT and the reaction was incubated at 37° C. for the various indicated time intervals. Reactions were stopped by the addition of EDTA and the reactions precipitated by the addition of isopropyl alcohol. The products were resuspended in formamide gel loading buffer II (Ambion), heated at 70° for 5 min to denature the products, and fractionated on a 15% polyacrylamide sequencing gel.
# [6] = test system: HIV-1 AZT-R; format: cell-based
# [7] = test system: HIV-1 SSGR+215; format: cell-based
# [8] = test system: HIV-1 Q151M complex; format: cell-based
# [9] = test system: HIV-1 viral DNA synthesis (reverse transcriptase); assay: Quantitative PCR of viral DNA from infected HOS cells; format: cell-based; conditions: viral DNA collected 2, 4, 6 and 24 hours post-infection
# From the text: FIG. 5 is a schematic illustrating the steps of HIV-1 viral DNA synthesis. Viral DNA was isolated from infections over time and assayed by quantitative PCR to determine the amount of viral DNA produced corresponding to various points of DNA synthesis. The regions targeted by our PCR primers and probes are indicated and correspond to: initiation (RU5), minus strand transfer (U3), full length viral DNA (gag), and plus strand transfer (corresponding to second strand synthesis).
# The effects of the target compounds on viral DNA production were determined by quantitative PCR. 293 cells were transfected as above and transfections were washed with PBS 8 hours post-transfection and fresh medium added. The transfection wash step was repeated 24 hours post-transfection and fresh medium was added. On the day prior to infection, HOS cells were plated at 2×10^5 cells on to 60 mm plates. Virus-containing supernatants were harvested at 48 hours as above and treated with 20 U/mL of RNase-free DNase I (Roche Applied Science, Indianapolis, Ind.) and 30 U/mL of DNase Turbo (Ambion, Foster City, Calif.). Cells were pre-incubated with the target compounds for 3 h. For each target compound, the treated virus-containing supernatants were concentrated to 7.5 mL, and infections carried out by adding 1.75 mL each to 4 plates of HOS cells. Cells were harvested at 2, 4, 6, and 24 hour intervals and the viral DNA purified using the Qiagen EZ1 DNA tissue kit (Valencia, Calif.). Quantitative PCR (qPCR) was used to determine quantities of DNA corresponding to various steps along the viral DNA synthesis pathway. qPCR primers and probes used were as previously described. (Julias, J. G., Ferris, A. L., Boyer, P. L. and Hughes, S. H. (2001) J. Virol. 75, 6537-46.).
# In order to determine that the compounds are targeting HIV-1 reverse transcriptase in the cell based assays, viral DNA was isolated from infections over time and assayed by quantitative PCR to determine the amount of viral DNA produced corresponding to various points of DNA synthesis (FIG. 5). The regions targeted by our PCR primers and probes correspond to: initiation (RU5), minus strand transfer (U3), full length viral DNA (gag), and plus strand transfer (corresponding to the initiation of second strand synthesis).
# [10] = test system: HIV-1; format: cell-based
# [11] = test system: HOS cells
# [12] = test system: MT4 cells; conditions: work from Ohuri and others; cited from earlier work
compound,measurement,setting,value
"C#C[C@]1(CO)O[C@@H](n2cnc3c(N)nc(F)nc32)C[C@@H]1O [C4′-ethynl-deoxy-2-fluoro-adenosine, C4′-ethynl-deoxy-2-fluoroadenosine]",efficacy against WT versus C4′-methyl- and -ethyl-2-deoxyadenosine,[1],slightly improved efficacies against WT
same,"increase in EC50 values, M184V variant over wild-type",[2],2 fold
same,effectiveness against HIV-1 in MT-4 cells,[3],"effective compound against NRTI-resistant HIV-1, including the M184V variant"
same,effectiveness against HIV-1 in MT-4 cells,[3]; listed as C4′-ethynl-deoxy-2-fluoroadenosine,effective against the wild-type and the M184V reverse transcriptase variant
same,cytotoxicity in MT-4 cells,[4],decreased cytotoxicity
C[C@]1(COP(=O)(O)OP(=O)(O)OP(=O)(O)O)O[C@@H](n2cnc3c(N)ncnc32)C[C@@H]1O [C4′-methyl-2-dexoyadenosinetriphosphate],chain termination,"[5]; longer time points, extended DNA products observed",does not act as a chain terminator
same,competition with normal nucleosides,[5]; mixtures of ATP and the triphosphate,able to compete with normal nucleosides during DNA synthesis
same,effect of triphosphate incorporation on DNA synthesis,"[5]; short time points, DNA or RNA template",pausing during DNA synthesis at the point of incorporation
"CCC1(CO)OC(n2cnc3c(N)ncnc32)CC1O (stereo not drawn) [C4′Et-2-dA, 5-(6-Amino-purin-9-yl)-2-ethyl-2-hydroxymethyl-tetrahydro-furan-3-ol]",inhibition of NRTI resistance mutant AZT-R,[6],inhibitory
same,"increase in the EC50 value, AZT-R variant over wild-type",[6]; HOS cells,3.9 fold
same,inhibition of NRTI resistance mutant SSGR+215,[7],inhibitory
same,inhibition of NRTI resistance mutant Q151M complex,[8],inhibitory
same,inhibition of DNA synthesis compared with AZT,[9],as well as or better than AZT
same,late stage viral DNA synthesis (gag and 2nd Strand Transfer),[9],significantly diminished
same,effectiveness in TZM-bl cells compared with HOS cells,[10]; TZM-bl cells,equally as effective
same,selectivity index (CC50 to EC50 ratio),[11],greater than 140
"C[C@]1(CO)O[C@@H](n2cnc3c(N)ncnc32)C[C@@H]1O [C4′Me-2-dA, C4′-methyl-2-deoxyadenosine]",EC50,"[1]; read-out: EC50, relative infectivity of HIV-1 vectors",48 nM
same,inhibition of NRTI resistance mutant AZT-R,[6],inhibitory
same,inhibition of NRTI resistance mutant SSGR+215,[7],inhibitory
same,inhibition of NRTI resistance mutant Q151M complex,[8],inhibitory
same,inhibition of DNA synthesis compared with AZT,[9],as well as or better than AZT
same,late stage viral DNA synthesis (gag and 2nd Strand Transfer),[9],significantly diminished
same,effectiveness in TZM-bl cells compared with HOS cells,[10],equally as effective
same,cytotoxicity in MT4 cell killing assays,[12],cytotoxic
